Laboratory results reported in article PMC12621043, “Un-LOK-ing a New Approach for Conformational Selective Targeting of STK10 (LOK)” (ACS Medicinal Chemistry Letters, 2025).

Assays:
Assay in all cases: DSF Tm panel
Assay type in all cases: binding
Conditions in all cases: 10 μM compound
SRCA = biological target: T1, SRCA (Homo sapiens, UniProt P12931)
T1 construct: purchased in-house DSF kinase panel (SGC-style construct names; the trailing letter is the construct ID)

BRD4 (BRD4A) = biological target: T2, BRD4 (BRD4A) (Homo sapiens, UniProt O60885)
T2 construct: purchased in-house DSF kinase panel (SGC-style construct names; the trailing letter is the construct ID)

CAMK1DA = biological target: T3, CAMK1DA (Homo sapiens, UniProt Q8IU85)
T3 construct: purchased in-house DSF kinase panel (SGC-style construct names; the trailing letter is the construct ID)
T3 sequence (Q8IU85 whole entry): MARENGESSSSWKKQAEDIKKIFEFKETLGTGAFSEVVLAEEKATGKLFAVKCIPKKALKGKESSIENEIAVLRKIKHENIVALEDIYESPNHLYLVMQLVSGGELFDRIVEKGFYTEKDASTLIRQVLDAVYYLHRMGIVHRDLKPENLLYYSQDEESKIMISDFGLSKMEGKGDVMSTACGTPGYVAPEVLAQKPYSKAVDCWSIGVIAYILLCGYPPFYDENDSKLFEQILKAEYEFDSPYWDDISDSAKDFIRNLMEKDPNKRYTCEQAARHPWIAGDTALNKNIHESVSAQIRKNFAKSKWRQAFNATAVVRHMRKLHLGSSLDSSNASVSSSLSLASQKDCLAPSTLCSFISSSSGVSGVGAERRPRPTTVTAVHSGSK

STK6A = biological target: T4, STK6A (Homo sapiens, UniProt O14965)
T4 construct: purchased in-house DSF kinase panel (SGC-style construct names; the trailing letter is the construct ID)
T4 sequence (O14965 122-403): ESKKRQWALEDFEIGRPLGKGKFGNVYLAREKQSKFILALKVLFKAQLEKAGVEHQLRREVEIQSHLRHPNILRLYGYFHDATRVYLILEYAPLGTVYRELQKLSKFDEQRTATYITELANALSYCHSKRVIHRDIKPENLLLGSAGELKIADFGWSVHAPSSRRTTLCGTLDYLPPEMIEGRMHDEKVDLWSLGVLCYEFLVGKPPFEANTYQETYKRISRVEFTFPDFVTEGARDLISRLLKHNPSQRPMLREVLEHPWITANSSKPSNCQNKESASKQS

GSK3BB = biological target: T5, GSK3BB (Homo sapiens, UniProt P49841)
T5 construct: purchased in-house DSF kinase panel (SGC-style construct names; the trailing letter is the construct ID)
T5 sequence (P49841 35-386): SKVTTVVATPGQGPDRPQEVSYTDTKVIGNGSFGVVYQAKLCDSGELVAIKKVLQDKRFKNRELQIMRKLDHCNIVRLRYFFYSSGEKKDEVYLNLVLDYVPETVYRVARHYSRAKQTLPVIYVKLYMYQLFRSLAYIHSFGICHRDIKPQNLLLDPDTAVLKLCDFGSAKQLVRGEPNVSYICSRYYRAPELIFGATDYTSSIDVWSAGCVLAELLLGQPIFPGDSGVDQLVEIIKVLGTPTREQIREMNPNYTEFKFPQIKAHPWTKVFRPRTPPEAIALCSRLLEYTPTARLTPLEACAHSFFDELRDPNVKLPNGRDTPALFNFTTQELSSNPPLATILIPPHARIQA

K2A2 (CSNK2A2A) = biological target: T6, K2A2 (CSNK2A2A) (Homo sapiens, UniProt P19784)
T6 construct: purchased in-house DSF kinase panel (SGC-style construct names; the trailing letter is the construct ID)
T6 sequence (P19784 whole entry): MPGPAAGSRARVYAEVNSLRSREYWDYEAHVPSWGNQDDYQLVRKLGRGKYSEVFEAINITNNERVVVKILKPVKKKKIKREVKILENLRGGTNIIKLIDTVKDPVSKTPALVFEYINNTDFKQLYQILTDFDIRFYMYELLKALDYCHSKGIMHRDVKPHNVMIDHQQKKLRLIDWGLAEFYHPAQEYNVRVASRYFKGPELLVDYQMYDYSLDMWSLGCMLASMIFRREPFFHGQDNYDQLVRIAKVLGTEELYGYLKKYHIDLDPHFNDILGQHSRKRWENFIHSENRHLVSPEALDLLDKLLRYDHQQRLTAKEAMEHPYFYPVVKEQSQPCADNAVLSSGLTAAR

BMPR2A = biological target: T7, BMPR2A (Homo sapiens, UniProt Q13873)
T7 construct: purchased in-house DSF kinase panel (SGC-style construct names; the trailing letter is the construct ID)
T7 sequence (Q13873 27-1038): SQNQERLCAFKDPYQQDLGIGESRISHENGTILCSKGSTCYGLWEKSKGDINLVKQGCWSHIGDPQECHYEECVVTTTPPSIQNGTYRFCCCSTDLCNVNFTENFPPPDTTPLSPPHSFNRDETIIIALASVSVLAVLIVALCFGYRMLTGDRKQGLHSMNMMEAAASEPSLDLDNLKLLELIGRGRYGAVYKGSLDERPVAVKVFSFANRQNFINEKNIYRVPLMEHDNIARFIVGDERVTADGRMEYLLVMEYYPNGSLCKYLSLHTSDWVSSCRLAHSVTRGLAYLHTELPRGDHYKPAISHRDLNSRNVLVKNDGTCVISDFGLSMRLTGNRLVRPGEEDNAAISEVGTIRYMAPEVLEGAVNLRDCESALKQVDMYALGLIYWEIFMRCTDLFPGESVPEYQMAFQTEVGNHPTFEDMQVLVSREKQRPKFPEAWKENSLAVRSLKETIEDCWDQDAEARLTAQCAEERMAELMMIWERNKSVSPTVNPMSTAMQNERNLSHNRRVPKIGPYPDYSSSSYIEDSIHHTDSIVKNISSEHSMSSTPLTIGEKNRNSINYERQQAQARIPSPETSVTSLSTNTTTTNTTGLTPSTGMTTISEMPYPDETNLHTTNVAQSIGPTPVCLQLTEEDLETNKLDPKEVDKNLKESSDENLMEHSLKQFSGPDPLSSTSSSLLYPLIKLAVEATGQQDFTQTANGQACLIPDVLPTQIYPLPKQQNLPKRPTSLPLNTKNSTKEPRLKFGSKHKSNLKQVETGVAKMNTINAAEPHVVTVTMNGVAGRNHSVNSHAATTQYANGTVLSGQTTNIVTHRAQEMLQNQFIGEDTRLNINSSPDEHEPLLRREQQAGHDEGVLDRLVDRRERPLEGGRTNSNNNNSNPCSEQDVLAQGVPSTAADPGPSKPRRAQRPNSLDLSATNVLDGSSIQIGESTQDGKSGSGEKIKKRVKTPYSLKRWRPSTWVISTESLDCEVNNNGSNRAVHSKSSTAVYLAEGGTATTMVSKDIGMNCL

TTKA = biological target: T8, TTKA (Homo sapiens, UniProt P33981)
T8 construct: purchased in-house DSF kinase panel (SGC-style construct names; the trailing letter is the construct ID)
T8 sequence (P33981 519-808): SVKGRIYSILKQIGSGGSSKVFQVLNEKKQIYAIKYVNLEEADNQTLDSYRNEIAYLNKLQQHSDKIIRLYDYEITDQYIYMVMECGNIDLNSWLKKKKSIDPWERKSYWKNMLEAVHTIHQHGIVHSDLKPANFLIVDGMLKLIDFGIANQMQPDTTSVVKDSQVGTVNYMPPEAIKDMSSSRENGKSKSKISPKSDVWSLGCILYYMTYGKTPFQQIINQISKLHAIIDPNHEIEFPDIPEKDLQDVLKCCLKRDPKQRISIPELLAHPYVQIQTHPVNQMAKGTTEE

GAKA = biological target: T9, GAKA (Homo sapiens, UniProt O14976)
T9 construct: purchased in-house DSF kinase panel (SGC-style construct names; the trailing letter is the construct ID)
T9 sequence (O14976 14-351): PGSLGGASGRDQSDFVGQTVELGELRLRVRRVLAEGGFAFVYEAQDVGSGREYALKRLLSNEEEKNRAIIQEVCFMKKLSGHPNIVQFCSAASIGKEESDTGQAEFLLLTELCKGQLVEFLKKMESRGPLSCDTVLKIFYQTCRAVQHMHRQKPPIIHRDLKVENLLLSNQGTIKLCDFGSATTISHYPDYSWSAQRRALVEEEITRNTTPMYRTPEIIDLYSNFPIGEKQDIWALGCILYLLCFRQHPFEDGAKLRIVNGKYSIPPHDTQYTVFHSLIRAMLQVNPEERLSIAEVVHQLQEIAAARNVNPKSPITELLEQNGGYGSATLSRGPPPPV

TAF1A = system: TAF1A

T1 sequence (P12931 254-536): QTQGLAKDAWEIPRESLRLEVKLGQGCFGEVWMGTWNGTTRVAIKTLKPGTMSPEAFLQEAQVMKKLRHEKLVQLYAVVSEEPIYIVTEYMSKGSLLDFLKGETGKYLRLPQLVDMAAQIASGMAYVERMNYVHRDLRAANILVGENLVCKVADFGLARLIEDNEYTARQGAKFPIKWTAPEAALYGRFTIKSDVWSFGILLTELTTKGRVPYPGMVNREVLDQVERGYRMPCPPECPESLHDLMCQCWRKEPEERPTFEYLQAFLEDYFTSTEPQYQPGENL

CN1CCN(C(=O)Nc2ccc3cc2OCCOCCNc2ccn4ncc-3c4n2)CC1 [compound 35]
ΔTm at 10 µM (SRCA): 0.7 °C
ΔTm at 10 µM (BRD4 (BRD4A)): -0.4 °C
ΔTm at 10 µM (CAMK1DA): -1.2 °C
ΔTm at 10 µM (STK6A): 2.4 °C
ΔTm at 10 µM (GSK3BB): 1.7 °C
ΔTm at 10 µM (K2A2 (CSNK2A2A)): 3.6 °C
ΔTm at 10 µM (BMPR2A): 3.5 °C
ΔTm at 10 µM (TTKA): 0.3 °C
ΔTm at 10 µM (GAKA): 3.8 °C
ΔTm TAF1A (TAF1A): 0,1 °C
